The text below walks through data of the supplement of paper PMC9780213.

Common to all, as to conditions: treatment time: 24 h
For one assay, the system named is U2OS-LMNB1-TUBA1B-ACTB. Put plainly: cell count relative to DMSO control (panel C1, DRAQ5/ER stain) (fraction of control); higher = more cells (less toxicity). The procedure:
(§1)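 U2OS-derived cells in 384-well plates were treated for 24 h with a 7-point 2-fold dilution series (top dose 20 µM for most compounds; final max DMSO 1%), then fixed, stained in four marker panels and imaged on a Cellomics ArrayScan. Cell count per treatment (three replicate plates merged) is given as a fraction of DMSO control. Panel A used parental U2OS, panel B U2OS-mOrange2-Peroxisome, panel C1 U2OS-LMNB1-TUBA1B-ACTB (DRAQ5 nuclei).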

The next assay deals with U2OS. Put plainly: cell count relative to DMSO control (panel A, nuclei/RNA/PMG/mitochondria stain) (fraction of control); higher = more cells (less toxicity). The procedure:
as §1

Another assay deals with U2OS-mOrange2-Peroxisome. Put plainly: cell count relative to DMSO control (panel B, lysosome/peroxisome/lipid stain) (fraction of control); higher = more cells (less toxicity). The method, then:
as §1

Structures are written as SMILES.

`CC[C@]1(O)C[C@H]2CN(CCc3c([nH]c4ccccc34)[C@@](C(=O)OC)(c3cc4c(cc3OC)N(C=O)[C@H]3[C@@](O)(C(=O)OC)[C@H](OC(C)=O)[C@]5(CC)C=CCN6CC[C@]43[C@@H]65)C2)C1` [vincristine]: the cell count in the assay with U2OS-LMNB1-TUBA1B-ACTB (0.3125 µM) is 0.617; in the assay on U2OS-LMNB1-TUBA1B-ACTB (0.625 µM) it was 0.651; in the assay with U2OS-LMNB1-TUBA1B-ACTB (1.25 µM), 0.606; with U2OS-LMNB1-TUBA1B-ACTB (2.5 µM) it was 0.557; with U2OS-LMNB1-TUBA1B-ACTB (5 µM), 0.576; in the assay on U2OS-LMNB1-TUBA1B-ACTB (10 µM) it was 0.58. Further, the cell count with U2OS-LMNB1-TUBA1B-ACTB (20 µM) was 0.59; in the assay on U2OS (0.3125 µM), 0.508; in the assay with U2OS (0.625 µM), 0.506; in the assay on U2OS (1.25 µM) it was 0.522; in the assay with U2OS (2.5 µM), 0.496; in the assay with U2OS (5 µM) it was 0.465. In addition, the cell count was determined as 0.486 in the assay on U2OS (10 µM); 0.456 with U2OS (20 µM); 0.728 in the assay on U2OS-mOrange2-Peroxisome (0.3125 µM); 0.834 with U2OS-mOrange2-Peroxisome (0.625 µM); 0.678 in the assay on U2OS-mOrange2-Peroxisome (1.25 µM); 0.793 in the assay with U2OS-mOrange2-Peroxisome (2.5 µM). Besides, the figures for the cell count in the assay with U2OS-mOrange2-Peroxisome (5 µM), in the assay with U2OS-mOrange2-Peroxisome (10 µM) and in the assay with U2OS-mOrange2-Peroxisome (20 µM) were 0.752, 0.769 and 0.685, respectively.
For `O=C(CCCCCCC(=O)Nc1ccccc1)NO` [vorinostat], the cell count was 1.1 in the assay on U2OS-LMNB1-TUBA1B-ACTB (0.3125 µM); 1.02 with U2OS-LMNB1-TUBA1B-ACTB (0.625 µM); 0.995 in the assay on U2OS-LMNB1-TUBA1B-ACTB (1.25 µM); 0.911 with U2OS-LMNB1-TUBA1B-ACTB (2.5 µM); 1.01 with U2OS-LMNB1-TUBA1B-ACTB (5 µM); 0.794 in the assay with U2OS-LMNB1-TUBA1B-ACTB (10 µM). In addition, the cell count in the assay on U2OS-LMNB1-TUBA1B-ACTB (20 µM) was 0.208; in the assay on U2OS (0.3125 µM), 1.12; in the assay with U2OS (0.625 µM), 1.1; with U2OS (1.25 µM) it was 0.993; in the assay on U2OS (2.5 µM), 1.03; in the assay with U2OS (5 µM), 1.02. In addition, the cell count with U2OS (10 µM) amounted to 0.899; with U2OS (20 µM) it was 0.304; in the assay with U2OS-mOrange2-Peroxisome (0.3125 µM), 0.929; with U2OS-mOrange2-Peroxisome (0.625 µM), 1.04; in the assay with U2OS-mOrange2-Peroxisome (1.25 µM), 0.893; in the assay with U2OS-mOrange2-Peroxisome (2.5 µM), 1.13. The cell count in the assay on U2OS-mOrange2-Peroxisome (5 µM) turned out to be 0.926; in the assay with U2OS-mOrange2-Peroxisome (10 µM), 0.812; with U2OS-mOrange2-Peroxisome (20 µM), 0.292.
